Results published in ChEMBL document CHEMBL4507307 (2021).

How the values were obtained:
[1] = target: Interleukin-1 receptor-associated kinase 4 (Homo sapiens) (UniProt Q9NWZ3); assay: IRAK4 Kinase activity screen
[2] = target: Dual specificity tyrosine-phosphorylation-regulated kinase 1B (Homo sapiens, UniProt Q9Y463); assay: DYRK1B Kinase activity screen
[3] = target: Histamine H4 receptor (Homo sapiens) (UniProt Q9H3N8); settings: Compound concentration 10.0 uM
[4] = target: Serine/threonine-protein kinase mTOR (Homo sapiens) (UniProt P42345); assay: FRAP1 (mTOR) Kinase activity screen
[5] = target: Tyrosine-protein kinase JAK2 (Homo sapiens) (UniProt O60674); assay: JAK2 Kinase activity screen
[6] = target: Death-associated protein kinase 1 (Homo sapiens) (UniProt P53355); assay: DAPK1 Kinase activity screen
[7] = target: Aurora kinase B (Homo sapiens) (UniProt Q96GD4); assay: AURKB (Aurora B) Kinase activity screen
[8] = target: Homeodomain-interacting protein kinase 2 (Homo sapiens) (UniProt Q9H2X6); assay: HIPK2 Kinase activity screen
[9] = target: Aurora kinase A (Homo sapiens) (UniProt O14965); assay: AURKA (Aurora A) Kinase activity screen
[10] = target: Serine/threonine-protein kinase Chk2 (Homo sapiens) (UniProt O96017); assay: CHEK2 (CHK2) Kinase activity screen
[11] = target: SRSF protein kinase 2 (Homo sapiens) (UniProt P78362); assay: SRPK2 Kinase activity screen
[12] = target: 5-hydroxytryptamine receptor 5A (Homo sapiens, UniProt P47898); settings: Compound concentration 10.0 uM
[13] = target: Serine/threonine-protein kinase Nek2 (Homo sapiens) (UniProt P51955); assay: NEK2 Kinase activity screen
[14] = target: Glycogen synthase kinase-3 beta (Homo sapiens) (UniProt P49841); assay: GSK3B (GSK3 beta) Kinase activity screen
[15] = target: Mitogen-activated protein kinase 1 (Homo sapiens) (UniProt P28482); assay: MAPK1 (ERK2) Kinase activity screen
[16] = target: Dual specificity protein kinase CLK3 (Homo sapiens) (UniProt P49761); assay: CLK3 Kinase activity screen
[17] = target: Serine/threonine-protein kinase PLK1 (Homo sapiens) (UniProt P53350); assay: PLK1 Kinase activity screen
[18] = target: Dual specificity tyrosine-phosphorylation-regulated kinase 3 (Homo sapiens) (UniProt O43781); assay: DYRK3 Kinase activity screen
[19] = target: 5-hydroxytryptamine receptor 2A (Homo sapiens, UniProt P28223); settings: Compound concentration 10.0 uM
[20] = target: Casein kinase I isoform delta (Homo sapiens) (UniProt P48730); assay: CSNK1D (CK1 delta) Kinase activity screen
[21] = target: Protein kinase C alpha type (Homo sapiens) (UniProt P17252); assay: PRKCA (PKC alpha) Kinase activity screen
[22] = target: Dual specificity protein kinase CLK1 (Homo sapiens, UniProt P49759); assay: CLK1 Kinase activity screen
[23] = target: Proto-oncogene tyrosine-protein kinase ROS (Homo sapiens) (UniProt P08922); assay: ROS1 Kinase activity screen
[24] = target: Calcium/calmodulin-dependent protein kinase type 1 (Homo sapiens) (UniProt Q14012); assay: CAMK1 (CaMK1) Kinase activity screen
[25] = target: Mast/stem cell growth factor receptor Kit (Homo sapiens) (UniProt P10721); assay: KIT Kinase activity screen
[26] = target: Serine/threonine-protein kinase Nek1 (Homo sapiens) (UniProt Q96PY6); assay: NEK1 Kinase activity screen
[27] = target: Serine/threonine-protein kinase B-raf (Homo sapiens) (UniProt P15056); assay: BRAF Kinase activity screen
[28] = target: CDK2/Cyclin A2 (Homo sapiens) (UniProt P24941+P20248); assay: CDK2/cyclin A Kinase activity screen; assay type: protein-complex assay
[29] = target: CDK7/Cyclin H/MNAT1 (Homo sapiens) (UniProt P51946+P50613+P51948); assay: CDK7/cyclin H/MNAT1 Kinase activity screen; assay type: protein-complex assay
[30] = target: Ephrin type-A receptor 1 (Homo sapiens) (UniProt P21709); assay: EPHA1 Kinase activity screen
[31] = target: Cyclin-dependent kinase 1/cyclin B (Homo sapiens) (UniProt P06493+P14635+Q8WWL7+O95067); assay: CDK1/cyclin B Kinase activity screen; assay type: protein-complex assay
[32] = target: Mitogen-activated protein kinase 14 (Homo sapiens) (UniProt Q16539); assay: MAPK14 (p38 alpha) Kinase activity screen
[33] = target: Rho-associated protein kinase 1 (Homo sapiens) (UniProt Q13464); assay: ROCK1 Kinase activity screen
[34] = target: Sigma non-opioid intracellular receptor 1 (Homo sapiens, UniProt Q99720); assay: GPCRScan assay: inhibition of Sigma 1; parameters: radioligand conc. used [nm] 4.0 – 5.0, parental cells HEKT
[35] = target: T1, Beta-3 adrenergic receptor (Homo sapiens, UniProt P13945); assay: GPCRScan assay: inhibition of Beta3; parameters: radioligand conc. used [nm] 0.2 – 0.5, parental cells HEK Flp-In
[36] = target: T1, Beta-3 adrenergic receptor; settings: Compound concentration 10.0 uM
D(1A) dopamine receptor = D(1A) dopamine receptor (Homo sapiens, UniProt P21728); assay: GPCRScan assay: inhibition of D1; parameters: radioligand conc. used [nm] 0.6 – 1.3, parental cells HEKT
[37] = target: 5-hydroxytryptamine receptor 1A (Homo sapiens) (UniProt P08908); settings: Compound concentration 10.0 uM
D(2) dopamine receptor = D(2) dopamine receptor (Homo sapiens, UniProt P14416); assay: GPCRScan assay: inhibition of D2; parameters: radioligand conc. used [nm] 0.4 – 1.0, parental cells stable fibroblast
[38] = target: Alpha-2C adrenergic receptor (Homo sapiens, UniProt P18825); assay: GPCRScan assay: inhibition of Alpha2C; parameters: radioligand conc. used [nm] 0.5 – 1.0, parental cells stable MDCK
[39] = Compound concentration 0.123 uM

Chain of Serine/threonine-protein kinase Nek1 (Homo sapiens) (Q96PY6 whole entry): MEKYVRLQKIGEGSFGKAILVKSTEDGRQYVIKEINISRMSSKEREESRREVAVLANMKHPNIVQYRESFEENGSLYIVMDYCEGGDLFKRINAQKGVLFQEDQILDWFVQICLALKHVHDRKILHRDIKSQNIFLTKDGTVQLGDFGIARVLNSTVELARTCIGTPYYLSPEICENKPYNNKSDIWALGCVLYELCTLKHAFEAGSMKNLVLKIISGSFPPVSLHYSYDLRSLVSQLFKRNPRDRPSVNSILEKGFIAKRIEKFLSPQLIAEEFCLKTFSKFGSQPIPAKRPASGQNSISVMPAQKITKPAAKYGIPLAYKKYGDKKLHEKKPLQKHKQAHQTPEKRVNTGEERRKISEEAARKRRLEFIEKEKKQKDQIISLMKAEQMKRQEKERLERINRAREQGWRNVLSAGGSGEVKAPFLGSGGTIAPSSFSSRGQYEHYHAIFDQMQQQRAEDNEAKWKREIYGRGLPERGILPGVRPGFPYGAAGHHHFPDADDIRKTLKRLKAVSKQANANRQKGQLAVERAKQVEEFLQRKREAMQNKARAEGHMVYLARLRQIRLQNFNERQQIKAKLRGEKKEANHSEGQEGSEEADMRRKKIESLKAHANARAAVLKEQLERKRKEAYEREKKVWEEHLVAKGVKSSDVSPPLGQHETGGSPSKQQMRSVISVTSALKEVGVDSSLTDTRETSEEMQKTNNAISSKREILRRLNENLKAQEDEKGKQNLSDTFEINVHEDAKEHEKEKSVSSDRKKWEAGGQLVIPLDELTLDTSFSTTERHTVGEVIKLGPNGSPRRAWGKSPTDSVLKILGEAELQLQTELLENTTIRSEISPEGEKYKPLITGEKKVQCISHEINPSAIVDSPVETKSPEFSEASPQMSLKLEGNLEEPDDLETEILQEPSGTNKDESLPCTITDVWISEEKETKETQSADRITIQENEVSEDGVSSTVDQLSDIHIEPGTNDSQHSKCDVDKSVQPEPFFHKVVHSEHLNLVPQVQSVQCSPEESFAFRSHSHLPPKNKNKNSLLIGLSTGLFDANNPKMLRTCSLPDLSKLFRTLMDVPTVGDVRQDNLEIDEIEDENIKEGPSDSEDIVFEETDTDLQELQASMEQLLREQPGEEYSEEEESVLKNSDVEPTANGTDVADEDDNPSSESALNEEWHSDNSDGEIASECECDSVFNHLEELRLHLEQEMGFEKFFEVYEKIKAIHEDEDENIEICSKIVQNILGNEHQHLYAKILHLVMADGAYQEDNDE
Chain of SRSF protein kinase 2 (Homo sapiens) (P78362 whole entry, looked up): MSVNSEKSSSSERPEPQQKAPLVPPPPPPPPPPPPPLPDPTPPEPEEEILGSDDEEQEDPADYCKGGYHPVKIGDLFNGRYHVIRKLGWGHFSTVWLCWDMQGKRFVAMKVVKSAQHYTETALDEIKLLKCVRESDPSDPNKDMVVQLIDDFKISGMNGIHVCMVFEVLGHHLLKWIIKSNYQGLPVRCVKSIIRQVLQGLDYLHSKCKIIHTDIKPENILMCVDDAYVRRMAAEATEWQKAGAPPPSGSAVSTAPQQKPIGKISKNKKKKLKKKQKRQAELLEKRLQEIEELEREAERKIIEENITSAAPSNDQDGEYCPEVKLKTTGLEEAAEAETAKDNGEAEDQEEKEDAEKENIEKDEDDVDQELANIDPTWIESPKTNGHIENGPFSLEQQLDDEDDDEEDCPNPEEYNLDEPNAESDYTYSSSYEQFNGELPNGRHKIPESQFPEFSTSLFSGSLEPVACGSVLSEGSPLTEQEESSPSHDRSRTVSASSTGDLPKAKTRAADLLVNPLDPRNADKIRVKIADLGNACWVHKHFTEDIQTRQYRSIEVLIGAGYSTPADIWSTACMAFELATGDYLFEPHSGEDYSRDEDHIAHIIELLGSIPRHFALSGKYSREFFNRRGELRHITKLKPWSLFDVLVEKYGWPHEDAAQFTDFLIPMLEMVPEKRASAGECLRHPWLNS
Chain of Alpha-2C adrenergic receptor (P18825 whole entry): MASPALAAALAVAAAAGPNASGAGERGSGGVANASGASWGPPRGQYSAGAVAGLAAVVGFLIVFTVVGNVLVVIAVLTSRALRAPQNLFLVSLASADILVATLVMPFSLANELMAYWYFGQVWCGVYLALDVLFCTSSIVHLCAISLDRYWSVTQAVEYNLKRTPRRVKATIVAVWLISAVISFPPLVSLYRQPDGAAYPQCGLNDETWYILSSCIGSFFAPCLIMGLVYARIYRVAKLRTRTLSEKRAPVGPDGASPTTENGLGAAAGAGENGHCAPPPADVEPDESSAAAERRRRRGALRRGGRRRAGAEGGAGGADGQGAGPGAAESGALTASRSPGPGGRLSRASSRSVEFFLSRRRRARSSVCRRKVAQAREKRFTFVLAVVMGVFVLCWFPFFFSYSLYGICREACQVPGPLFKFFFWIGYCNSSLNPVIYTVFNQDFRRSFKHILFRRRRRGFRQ
Chain of Aurora kinase B (Homo sapiens) (Q96GD4 whole entry): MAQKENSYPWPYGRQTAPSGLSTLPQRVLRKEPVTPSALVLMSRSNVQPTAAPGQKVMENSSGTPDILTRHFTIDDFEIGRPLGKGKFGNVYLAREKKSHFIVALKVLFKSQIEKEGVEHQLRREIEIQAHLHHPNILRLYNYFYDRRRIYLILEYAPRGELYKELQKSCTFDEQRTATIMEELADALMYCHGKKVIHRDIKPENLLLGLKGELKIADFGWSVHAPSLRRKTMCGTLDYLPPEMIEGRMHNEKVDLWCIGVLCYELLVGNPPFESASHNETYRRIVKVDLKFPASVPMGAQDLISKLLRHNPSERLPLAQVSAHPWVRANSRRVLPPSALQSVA
Chain of Serine/threonine-protein kinase Nek2 (Homo sapiens) (P51955 whole entry): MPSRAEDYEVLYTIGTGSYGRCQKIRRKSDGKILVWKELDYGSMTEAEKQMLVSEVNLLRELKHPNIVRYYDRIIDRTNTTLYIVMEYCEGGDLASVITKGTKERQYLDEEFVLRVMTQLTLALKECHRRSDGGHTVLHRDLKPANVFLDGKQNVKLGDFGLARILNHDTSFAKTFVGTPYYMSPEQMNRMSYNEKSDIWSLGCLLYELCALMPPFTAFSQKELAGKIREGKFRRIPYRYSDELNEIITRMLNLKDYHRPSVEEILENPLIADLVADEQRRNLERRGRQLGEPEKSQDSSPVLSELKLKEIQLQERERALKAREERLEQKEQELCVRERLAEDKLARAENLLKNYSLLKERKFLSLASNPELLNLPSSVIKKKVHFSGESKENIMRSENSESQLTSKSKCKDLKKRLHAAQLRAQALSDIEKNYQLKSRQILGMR
Chain of Casein kinase I isoform delta (Homo sapiens) (P48730 whole entry, looked up, canonical isoform): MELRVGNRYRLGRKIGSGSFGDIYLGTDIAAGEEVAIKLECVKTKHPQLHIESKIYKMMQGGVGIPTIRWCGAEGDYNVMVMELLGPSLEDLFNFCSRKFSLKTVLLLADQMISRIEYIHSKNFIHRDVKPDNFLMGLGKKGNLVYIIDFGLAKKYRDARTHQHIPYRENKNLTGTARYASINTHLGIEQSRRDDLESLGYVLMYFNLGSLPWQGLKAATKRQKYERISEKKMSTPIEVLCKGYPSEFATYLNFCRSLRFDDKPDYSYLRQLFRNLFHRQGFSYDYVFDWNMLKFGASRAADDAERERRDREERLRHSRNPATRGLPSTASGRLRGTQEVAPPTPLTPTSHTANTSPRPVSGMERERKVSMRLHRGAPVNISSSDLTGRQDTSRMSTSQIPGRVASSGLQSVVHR
Chain of Interleukin-1 receptor-associated kinase 4 (Homo sapiens) (Q9NWZ3 whole entry): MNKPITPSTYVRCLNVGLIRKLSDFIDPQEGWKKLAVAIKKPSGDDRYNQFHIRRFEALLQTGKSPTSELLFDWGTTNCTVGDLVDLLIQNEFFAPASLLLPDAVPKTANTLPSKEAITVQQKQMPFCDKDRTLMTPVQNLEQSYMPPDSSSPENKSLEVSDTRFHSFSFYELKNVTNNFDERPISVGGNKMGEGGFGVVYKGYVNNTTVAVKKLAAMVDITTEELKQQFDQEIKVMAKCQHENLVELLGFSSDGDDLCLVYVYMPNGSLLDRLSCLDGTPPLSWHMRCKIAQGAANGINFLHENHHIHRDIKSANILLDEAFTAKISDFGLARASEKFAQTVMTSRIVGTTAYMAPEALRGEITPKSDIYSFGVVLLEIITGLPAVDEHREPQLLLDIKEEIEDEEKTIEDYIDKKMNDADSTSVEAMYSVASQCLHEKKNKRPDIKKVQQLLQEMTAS
Chain of Histamine H4 receptor (Homo sapiens) (Q9H3N8 whole entry): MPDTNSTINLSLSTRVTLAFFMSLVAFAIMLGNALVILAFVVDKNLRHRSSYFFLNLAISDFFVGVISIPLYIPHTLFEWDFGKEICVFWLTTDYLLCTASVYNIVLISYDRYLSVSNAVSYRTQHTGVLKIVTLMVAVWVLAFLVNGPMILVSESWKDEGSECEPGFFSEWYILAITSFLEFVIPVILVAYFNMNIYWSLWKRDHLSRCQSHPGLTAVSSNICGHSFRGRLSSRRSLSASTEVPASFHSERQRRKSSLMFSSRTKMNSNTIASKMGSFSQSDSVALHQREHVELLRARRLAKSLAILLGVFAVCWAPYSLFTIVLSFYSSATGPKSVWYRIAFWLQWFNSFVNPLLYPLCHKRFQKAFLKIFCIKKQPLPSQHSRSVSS
Chain of 5-hydroxytryptamine receptor 5A (P47898 whole entry): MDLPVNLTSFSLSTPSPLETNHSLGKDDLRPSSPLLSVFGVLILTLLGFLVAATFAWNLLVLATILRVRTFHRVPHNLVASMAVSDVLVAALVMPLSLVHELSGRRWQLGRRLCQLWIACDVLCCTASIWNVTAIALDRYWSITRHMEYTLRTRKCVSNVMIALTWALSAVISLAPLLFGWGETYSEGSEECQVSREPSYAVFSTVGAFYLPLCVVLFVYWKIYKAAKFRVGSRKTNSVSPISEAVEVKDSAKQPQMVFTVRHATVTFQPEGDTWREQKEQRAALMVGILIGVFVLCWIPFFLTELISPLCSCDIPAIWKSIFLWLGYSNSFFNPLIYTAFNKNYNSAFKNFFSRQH

CN1CCN(C(=O)C(C)(C)c2ccc(C(=O)Nc3cn4cc(-c5ccncc5)ccc4n3)cc2)CC1 [T3-CLK]
inhibition ([1]; Compound concentration 0.1 uM): 25.3% | inhibition ([1]; Compound concentration 1.0 uM): 42.4% | inhibition [2, 39]: 62.7% | inhibition ([2]; Compound concentration 1.11 uM): 94.1% | inhibition [3]: 0.74% | inhibition ([4]; Compound concentration 0.1 uM): -5.58% | inhibition ([4]; Compound concentration 1.0 uM): -8.53% | inhibition ([5]; Compound concentration 0.1 uM): -7.35% | inhibition ([5]; Compound concentration 1.0 uM): -6.29% | inhibition ([6]; Compound concentration 0.1 uM): -4.42% | inhibition ([6]; Compound concentration 1.0 uM): -6.43% | inhibition ([7]; Compound concentration 0.1 uM): 6.77% | inhibition ([7]; Compound concentration 1.0 uM): 16.1% | inhibition ([8]; Compound concentration 0.1 uM): -3.6% | inhibition ([8]; Compound concentration 1.0 uM): -1.82% | inhibition ([9]; Compound concentration 0.1 uM): 4.51% | inhibition ([9]; Compound concentration 1.0 uM): 8.55% | inhibition ([10]; Compound concentration 0.1 uM): 21.9% | inhibition ([10]; Compound concentration 1.0 uM): 24.2% | inhibition [11, 39]: 1.82% | inhibition ([11]; Compound concentration 1.11 uM): 5.16% | inhibition [12]: 4% | inhibition ([13]; Compound concentration 0.1 uM): 11.9% | inhibition ([13]; Compound concentration 1.0 uM): 24.3% | inhibition ([14]; Compound concentration 0.1 uM): -3.21% | inhibition ([14]; Compound concentration 1.0 uM): -3.11% | inhibition ([15]; Compound concentration 0.1 uM): 2.74% | inhibition ([15]; Compound concentration 1.0 uM): 4.01% | inhibition [16, 39]: 38.3% | inhibition ([16]; Compound concentration 1.11 uM): 88.7% | inhibition ([17]; Compound concentration 0.1 uM): 7.85% | inhibition ([17]; Compound concentration 1.0 uM): 2.48% | inhibition [18, 39]: -1.82% | inhibition ([18]; Compound concentration 1.11 uM): 3.7% | inhibition [19]: -2.63% | inhibition ([20]; Compound concentration 0.1 uM): -2.92% | inhibition ([20]; Compound concentration 1.0 uM): 4.31% | inhibition ([21]; Compound concentration 0.1 uM): 4.38% | inhibition ([21]; Compound concentration 1.0 uM): 3.75% | inhibition [22, 39]: 91.2% | inhibition ([22]; Compound concentration 1.11 uM): 99.1% | inhibition ([23]; Compound concentration 0.1 uM): -3.68% | inhibition ([23]; Compound concentration 1.0 uM): -0.398% | inhibition ([24]; Compound concentration 0.1 uM): 7.14% | inhibition ([24]; Compound concentration 1.0 uM): 5.32% | inhibition ([25]; Compound concentration 0.1 uM): 11% | inhibition ([25]; Compound concentration 1.0 uM): 37.5% | inhibition ([26]; Compound concentration 0.1 uM): 3.86% | inhibition ([26]; Compound concentration 1.0 uM): 25.1% | inhibition ([27]; Compound concentration 0.1 uM): 8.71% | inhibition ([27]; Compound concentration 1.0 uM): 17.2% | inhibition ([28]; Compound concentration 0.1 uM): 0.334% | inhibition ([28]; Compound concentration 1.0 uM): 3.32% | inhibition ([29]; Compound concentration 0.1 uM): 0.551% | inhibition ([29]; Compound concentration 1.0 uM): -3.41% | inhibition ([30]; Compound concentration 0.1 uM): -1.64% | inhibition ([30]; Compound concentration 1.0 uM): -0.564% | inhibition ([31]; Compound concentration 0.1 uM): 7.95% | inhibition ([31]; Compound concentration 1.0 uM): 7.1% | inhibition ([32]; Compound concentration 0.1 uM): 4.88% | inhibition ([32]; Compound concentration 1.0 uM): 6.39% | inhibition ([33]; Compound concentration 0.1 uM): 5.17% | inhibition ([33]; Compound concentration 1.0 uM): 9.37%

CN1CCN(C(=O)C(C)(C)c2ccc(C(=O)Nc3cn4cc(-c5cc(C(C)(C)C)cc(C(C)(C)C)c5)ccc4n3)cc2)CC1 [T3-CLK-N]
inhibition [3]: 31.9% | Ki ([34]; read-out: Ki): 0.798 µM | Ki ([34]; read-out: pKi (converted)): 0.741 µM | inhibition [12]: 83.2% | Ki [35]: > 10 µM | pKi [35]: < 5 | inhibition [19]: 92.3% | inhibition [36]: 78.1% | Ki (D(1A) dopamine receptor; read-out: Ki): 1.5 µM | Ki (D(1A) dopamine receptor; read-out: pKi (converted)): 1.29 µM | inhibition [37]: 51.3% | Ki (D(2) dopamine receptor; read-out: Ki): 2.75 µM | Ki (D(2) dopamine receptor; read-out: pKi (converted)): 2.34 µM | Ki [38]: > 10 µM | pKi [38]: < 5
